Tests used:
[1] = biological target: CutC from Proteus mirabilis (Proteus mirabilis, UniProt B4EYG1); test: Cell-based assay for TMA production from a native producer (P. mirabilis); details: d9-TMA from 1 mM d9-choline, 5 h, 37° C.; value 10 given when no fit or % TMA remaining at 10 μM higher than 15%; read-out: Average IC50 Whole cell P. mirabilis
Method in brief: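 Overnight anaerobic cultures of P. mirabilis or C. sporogenes, grown in BHI with 1 mM choline, were diluted and given 1 mM (trimethyl-d9)-choline plus compound at 10 μM final. After 5 h at 37° C., d9-TMA was quantified by LCMS.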

[2] = system: enzymatic activity in fecal matter; test: Inhibition of enzymatic activity in fecal matter; assay type: cell-based; details: d9-choline 1 mM, 16 hours at 37° C., anaerobic, d9-TMA by LCMS
Protocol: Inhibition of enzymatic activity in fecal matter was determined by adding a substrate (d9-choline, 1 mM final concentration) and a compound in a range of concentrations in order to determine an IC50. After incubation for a designated 16 hours at 37° C. in anaerobic conditions, samples were be prepared for LCMS analysis, and the amount of d9-TMA produced was determined using LCMS analysis as in the Examples above.

[3] = in vivo; design: species or system Sprague-Dawley rats; details: Sprague-Dawley, rat
Protocol: Sprague-Dawley rats (three rats per compound) were treated with a single intravenous (IV) 1 mg/kg dose or orally (PO) a single 10 mg/kg dose. Plasma concentrations of the conjugates were determined by LCMS at 5 minutes, 15 minutes, 30 minutes, 1 hour, 2 hours, 4 hours, 8 and 24 hours post compound administration. […] In addition, the plasma exposure and bioavailability of the active agent of was lower when dosed as a conjugate instead of the active agent alone.

[4] = Caco-2 permeability assay; assay type: in vitro ADME; details: human, Caco-2, pH 7.4
Protocol: Preparation of Caco-2 Cells: 50 μL and 25 mL of cell culture medium were added to each well of the Transwell insert and reservoir, respectively. The HTS transwell plates were incubated at 37° C., 5% CO2 for 1 hour before cell seeding. […] Cell culture medium was replaced every other day, beginning no later than 24 hours after initial plating.
Assessment of Cell Monolayer Integrity: Medium was removed from the reservoir and each Transwell insert and replaced with prewarmed fresh culture medium. Transepithelial electrical resistance (TEER) across the monolayer was measured using Millicell Epithelial Volt-Ohm measuring system (Millipore, USA). The Plate was returned to the incubator once the measurement was done. The TEER value was calculated according to the following equation: […]
Preparation of Solutions: 2 mM stock solutions in DMSO of control compounds were prepared and diluted with HBSS (10 mM HEPES, pH 7.4) to get 10 μM working solution. 0.2 mM stock solutions of test compounds in DMSO were prepared and diluted with HBSS (10 mM HEPES, pH 7.4 with 0.5% BSA) to get 1 μM working solution. Metoprolol, erythromycin and cimetidine were used as control compounds.
The Caco-2 plate was removed from the incubator. The monolayer was washed twice with pre-warmed HBSS (10 mM HEPES, pH 7.4). The plate was incubated at 37° C. for 30 minutes. To determine the rate of drug transport in the apical to basolateral direction, 125 μL of the working solution was added to the Transwell insert (apical compartment). A 50 μL sample was transferred immediately from the apical compartment to 200 μL of acetonitrile containing IS (100 nM alprazolam, 200 nM Caffeine and 100 nM tolbutamide) in a new 96-well plate as the initial donor sample (A-B) and it was vortexed at 1000 rpm for 10 minutes. The wells in the receiver plate (basolateral compartment) were filled with 235 μL of transport buffer. To determine the rate of drug transport in the basolateral to apical direction, 285 μL of the working solution were added to the receiver plate wells (basolateral compartment). A 50 μL sample was transferred immediately from the basolateral compartment to 200 μL of acetonitrile containing IS (100 nM alprazolam, 200 nM Caffeine and 100 nM tolbutamide) in a new 96-well plate as the initial donor sample (B-A) and it was vortexed at 1000 rpm for 10 minutes. The Transwell insert (apical compartment) was filled with 75 μL of transport buffer. The apical to basolateral direction and the basolateral to apical direction need to be done at the same time. The plates were incubated at 37° C. for 2 hours. At the end of the incubation, 50 μL samples from donor sides (apical compartment for Ap→Bl flux, and basolateral compartment for B1→Ap) and receiver sides (basolateral compartment for Ap→Bl flux, and apical compartment for B1→Ap) were transferred to wells of a new 96-well plate, followed by the addition of 4 volume of acetonitrile containing IS (100 nM alprazolam, 200 nM Caffeine and 100 nM tolbutamide). Samples were vortexed for 10 minutes, 50 μL samples were transferred to wells of a new 96-well plate, followed by the addition of 50 μL Hepes and 200 μL IS. All samples were vortexed for 10 minutes, and then centrifuged at 3,220 g for 40 minutes. An aliquot of 150 μL of the supernatant was mixed with an appropriate volume of ultra-pure water before LC-MS/MS analysis.
Apparent permeability (Papp) can be calculated for drug transport assays using the following equation: […]
Papp is apparent permeability (cm/s×10^−6);
Papp (B-A) indicates the apparent permeability coefficient in basolateral to apical direction, and
Papp (A-B) indicates the apparent permeability coefficient in apical to basolateral direction.

[5] = Pharmacokinetic study of colon contents and plasma after oral dose of conjugate; assay type: in vivo, male C57B3L/6 mice; details: male, C57B3L/6, mouse, in vivo, po
Protocol: To confirm that the active agent component of the conjugate is released in the gastrointestinal tract, a pharmacokinetic study was conducted in male C57B3L/6 mice examining conjugate and active agent of concentrations in both the colon contents and plasma after oral dose of conjugate. Conjugate and active agent of were quantified by LCMS at 0 (pre-dose), 0.25, 0.5, 1, 2, 4, 6, 8, 12, and 24 hours post-dose of compound.

Sequence of CutC from Proteus mirabilis (B4EYG1 entry or part of it): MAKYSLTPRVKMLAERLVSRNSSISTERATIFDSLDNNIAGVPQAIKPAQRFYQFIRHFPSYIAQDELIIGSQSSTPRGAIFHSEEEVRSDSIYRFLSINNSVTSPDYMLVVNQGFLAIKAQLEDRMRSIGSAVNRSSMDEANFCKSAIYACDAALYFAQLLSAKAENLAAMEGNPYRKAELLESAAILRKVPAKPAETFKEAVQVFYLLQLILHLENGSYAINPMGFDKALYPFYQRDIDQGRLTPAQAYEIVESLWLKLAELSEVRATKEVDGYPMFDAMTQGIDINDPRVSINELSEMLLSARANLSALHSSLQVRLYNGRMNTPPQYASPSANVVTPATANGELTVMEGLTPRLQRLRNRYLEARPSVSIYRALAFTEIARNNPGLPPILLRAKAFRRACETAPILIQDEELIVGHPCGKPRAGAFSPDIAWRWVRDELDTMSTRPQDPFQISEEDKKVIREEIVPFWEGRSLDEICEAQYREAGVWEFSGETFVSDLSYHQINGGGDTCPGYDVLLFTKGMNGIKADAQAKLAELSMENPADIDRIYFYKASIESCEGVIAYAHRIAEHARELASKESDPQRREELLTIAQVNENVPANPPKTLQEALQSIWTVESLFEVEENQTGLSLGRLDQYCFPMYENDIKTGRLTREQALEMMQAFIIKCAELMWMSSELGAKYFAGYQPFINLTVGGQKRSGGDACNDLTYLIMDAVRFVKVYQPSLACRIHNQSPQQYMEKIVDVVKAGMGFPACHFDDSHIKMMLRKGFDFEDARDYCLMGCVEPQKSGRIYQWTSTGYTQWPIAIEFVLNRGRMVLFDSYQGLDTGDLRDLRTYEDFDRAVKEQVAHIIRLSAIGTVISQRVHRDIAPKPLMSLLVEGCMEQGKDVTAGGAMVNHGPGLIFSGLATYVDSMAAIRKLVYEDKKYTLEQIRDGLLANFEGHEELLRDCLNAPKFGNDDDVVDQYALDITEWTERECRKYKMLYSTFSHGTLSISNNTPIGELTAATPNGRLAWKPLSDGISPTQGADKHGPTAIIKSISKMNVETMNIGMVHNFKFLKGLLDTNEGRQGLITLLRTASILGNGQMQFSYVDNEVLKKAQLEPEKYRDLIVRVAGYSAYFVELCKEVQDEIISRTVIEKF
Sequence of CutC from Proteus mirabilis (B4EYG0 entry or part of it, further chain): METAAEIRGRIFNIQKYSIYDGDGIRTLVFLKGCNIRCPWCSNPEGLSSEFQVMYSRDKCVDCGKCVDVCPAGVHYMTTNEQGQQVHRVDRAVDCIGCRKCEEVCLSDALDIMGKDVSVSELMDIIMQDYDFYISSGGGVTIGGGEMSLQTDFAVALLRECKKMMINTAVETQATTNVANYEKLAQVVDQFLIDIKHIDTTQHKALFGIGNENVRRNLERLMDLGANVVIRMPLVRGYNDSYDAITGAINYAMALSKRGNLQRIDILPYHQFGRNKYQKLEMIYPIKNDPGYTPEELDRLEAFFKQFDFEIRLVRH

| SMILES | IC50 [1] | IC50 [2] | Cmax ([3]; iv, 1 mg/kg) | Papp A→B at 2 h, 1 µM [4] | Papp B→A at 2 h, 1 µM [4] | % F ([3]; po, 10 mg/kg) | Cmax ([3]; po, 10 mg/kg) | bioavailability ([3]; po, 10 mg/kg) | Cmax [5] |
| --- | --- | --- | --- | --- | --- | --- | --- | --- | --- |
| CC(=O)OC[C@@H]1O[C@H](OCC[N+](C)(C)CCl)[C@@H](OC(C)=O)[C@H](OC(C)=O)[C@H]1OC(C)=O (stereo in doubt) [Compound 78, N-(chloromethyl)-N,N-dimethyl-2-(((2S,3S,4R,5S,6S)-3,4,5-triacetoxy-6-(acetoxymethyl)tetrahydro-2H-pyran-2-yl)oxy)ethan-1-aminium Iodide] | ≥ 10000 nM | 390 nM | 6 nM |  |  |  |  |  |  |
| CC(=O)OCC1OC(OCC[N+](C)(C)CF)C(OC(C)=O)C(OC(C)=O)C1OC(C)=O.[I-] (stereo in doubt) [Compound 79, N-(fluoromethyl)-N,N-dimethyl-2-(((2S,3S,4R,5S,6S)-3,4,5-triacetoxy-6-(acetoxymethyl)tetrahydro-2H-pyran-2-yl)oxy)ethan-1-aminium Iodide] |  |  | 13600 nM | 0.214 ×10⁻⁶ cm/s | 0.255 ×10⁻⁶ cm/s | 1.60% | 260 nM | 2.16% | 5 nM |
| CC(=O)OC[C@@H]1O[C@H](OCC[N+](C)(C)CF)[C@@H](OC(C)=O)[C@H](OC(C)=O)[C@H]1OC(C)=O (stereo in doubt) [Compound 79, N-(fluoromethyl)-N,N-dimethyl-2-(((2S,3S,4R,5S,6S)-3,4,5-triacetoxy-6-(acetoxymethyl)tetrahydro-2H-pyran-2-yl)oxy)ethan-1-aminium Iodide] | ≥ 10000 nM | 1170 nM | 1 nM |  |  |  | 50 nM |  |  |

Reference: US20220041641A1, “QUATERNARY AMMONIUM SALTS AS INHIBITORS OF TRIMETHYLAMINE PRODUCTION” (Senda Biosciences, Inc., priority 2018, published 2022)
